Data taken from ChEMBL document CHEMBL4706653, “Ultra-short lipopeptides against gram-positive bacteria while alleviating antimicrobial resistance” (Eur J Med Chem, 2021).
Values after ≈ are worked out from the molar mass of the structure shown. Active and inactive are the calls of the source. No cut-off for these calls is given here. Positions of bridges follow the written chain, without caps; N, C: chain ends. Non-standard residues stand in square brackets, D forms with d. Residues, ends and D or L forms follow the SMILES beside them. *: point of attachment. X1 = CC[C@H](C)CCCCC(=O)*; Dab = NCC[C@H](N)C(=O)O

Columns and labels:
[1] = Toxicity in BALB/c mouse assessed as congestion in kidney at 40 mg/kg, ip administered as single dose measured after 5 days; assay type: organism-based; conditions: in vivo, 120 h, time 5 day
Staphylococcus aureus [2] = experiment: Antimicrobial activity against Staphylococcus aureus ATCC 25923 assessed as bacterial killing preincubated for 4 hrs followed by replating on MHB agar and measured after 24 hrs by time kill assay; assay type: functional, organism-based; conditions: time 28.0 hrs
[3] = Toxicity in BALB/c mouse assessed as inflammatory cell infiltration in kidney at 80 mg/kg, ip administered as single dose measured after 5 days; assay type: organism-based; conditions: in vivo, 120 h, time 5 day
Cell membrane [4] = experiment: Induction of membrane disruption in Staphylococcus aureus ATCC 25923 assessed as PI-positive cells at 2 times MIC measured after 2 hrs by propidium iodide staining based flow cytometry relative to control
Staphylococcus aureus [5] = experiment: Antibiofilm activity against ciprofloxacin-resistant Staphylococcus aureus ATCC 25923 at 0.5 to 8 uM after 24 hrs by crystal violet staining based assay; assay type: functional, organism-based; conditions: dose 0.5-8 µM
Staphylococcus aureus [6] = experiment: Antimicrobial activity against methicillin-resistant Staphylococcus aureus 75 after 18 hrs by broth microdilution method; assay type: functional
[7] = Toxicity in BALB/c mouse assessed as swelling of renal tubular epithelial cells at 80 mg/kg, ip administered as single dose measured after 5 days; assay type: organism-based; conditions: in vivo, 120 h, time 5 day
[8] = Toxicity in BALB/c mouse assessed as eosinophilic mass in the renal tubular lumen at 80 mg/kg, ip administered as single dose measured after 5 days; assay type: organism-based; conditions: in vivo, 120 h, time 5 day
[9] = Toxicity in BALB/c mouse assessed as liver cell lysis at 80 mg/kg, ip administered as single dose measured after 5 days; assay type: organism-based; conditions: in vivo, 120 h, time 5 day
Staphylococcus aureus [10] = experiment: Antimicrobial activity against methicillin-resistant Staphylococcus aureus 113 after 18 hrs by broth microdilution method; assay type: functional
[11] = Toxicity in BALB/c mouse assessed as death at 20 mg/kg, ip administered as single dose measured within 24 hrs; assay type: organism-based; conditions: in vivo
[12] = Toxicity in BALB/c mouse assessed as ruffled fur at 20 to 80 mg/kg, ip administered as single dose measured within 30 mins; assay type: organism-based; conditions: in vivo, 0.5 h, dose 20-80 mg/kg
Cell membrane [13] = experiment: Induction of membrane disruption in Staphylococcus aureus ATCC 25923 measured after 2 hrs by propidium iodide staining based confocal laser scanning microscopic analysis; assay type: subcellular
[14] = Toxicity in BALB/c mouse assessed as vacuoles in liver cytoplasm at 20 mg/kg, ip administered as single dose measured after 5 days; assay type: organism-based; conditions: in vivo, 120 h, time 5 day
Bacillus subtilis = experiment: Antimicrobial activity against Bacillus subtilis ATCC 23857 after 18 hrs by broth microdilution method; assay type: functional
[15] = system: Staphylococcus epidermidis; experiment: Antimicrobial activity against Staphylococcus epidermidis ATCC 12228 at 0.5 times MIC after 15 passages by broth microdilution method; assay type: functional, organism-based
[16] = system: Staphylococcus epidermidis; experiment: Antimicrobial activity against Staphylococcus epidermidis ATCC 12228 after 18 hrs by broth microdilution method; assay type: functional
[17] = Toxicity in BALB/c mouse assessed as immobility at 20 to 80 mg/kg, ip administered as single dose measured within 30 mins; assay type: organism-based; conditions: in vivo, 0.5 h, dose 20-80 mg/kg
Cell membrane [18] = experiment: Induction of membrane disruption in Staphylococcus aureus ATCC 25923 assessed as PI-positive cells at 4 times MIC measured after 2 hrs by propidium iodide staining based flow cytometry relative to control
[19] = Toxicity in BALB/c mouse assessed as death at 20 to 80 mg/kg, ip administered as single dose measured within 30 mins; assay type: organism-based; conditions: in vivo, 0.5 h, dose 20-80 mg/kg
[20] = Toxicity in BALB/c mouse assessed as inflammatory cell infiltration in liver at 20 mg/kg, ip administered as single dose measured after 5 days; assay type: organism-based; conditions: in vivo, 120 h, time 5 day
Staphylococcus aureus [21] = experiment: Antimicrobial activity against Staphylococcus aureus ATCC 25923 at 0.5 times MIC after 15 passages by broth microdilution method; assay type: functional, organism-based
Lipopolysaccharide (LPS) = experiment: Binding affinity to LPS (unknown origin) assessed as bacterial killing at 2 times MIC preincubated for 1 hr followed by Staphylococcus aureus ATCC 25923 addition and measured after 2 hrs by colony counting method; conditions: time 3.0 hrs
Staphylococcus aureus [22] = experiment: Antimicrobial activity against Staphylococcus aureus ATCC 29213 after 18 hrs by broth microdilution method; assay type: functional
Staphylococcus aureus [23] = experiment: Induction of reactive oxygen species generation in Staphylococcus aureus ATCC 25923 by […] dye based fluorescence assay; assay type: functional, organism-based
Staphylococcus aureus [24] = experiment: Induction of nucleic acid leakage in Staphylococcus aureus ATCC 25923 at 4 times MIC; assay type: functional
Cell membrane [25] = experiment: Induction of cytoplasmic membrane disruption in Staphylococcus aureus ATCC 25923 measured for 15 mins by DiSC3-5 dye based fluorescence assay
Staphylococcus aureus [26] = experiment: Antibiofilm activity against Staphylococcus aureus ATCC 25923 at 0.5 to 8 uM after 24 hrs by crystal violet staining based assay; assay type: functional, organism-based; conditions: dose 0.5-8 µM
Staphylococcus aureus [27] = experiment: Antimicrobial activity against Staphylococcus aureus ATCC 25923 after 18 hrs by broth microdilution method; assay type: functional
[28] = Toxicity in BALB/c mouse assessed as congestion in liver at 20 mg/kg, ip administered as single dose measured after 5 days; assay type: organism-based; conditions: in vivo, 120 h, time 5 day
[29] = Binding affinity to LTA (unknown origin) assessed as bacterial killing at 2 times MIC preincubated for 1 hr followed by Staphylococcus aureus ATCC 25923 addition and measured after 2 hrs by colony counting method; conditions: time 3.0 hrs

Compound: CC[C@H](C)CCCCC(=O)N[C@@H](CCN)C(=O)N[C@H](C(=O)N[C@@H](CCN)C(=O)N[C@H]1CCNC(=O)[C@H]([C@@H](C)O)NC(=O)[C@H](CCN)NC(=O)[C@H](CCN)NC(=O)[C@H](CC(C)C)NC(=O)[C@@H](Cc2ccccc2)NC(=O)[C@H](CCN)NC1=O)[C@@H](C)O (X1-[Dab]T[Dab][Dab][Dab][dF]L[Dab][Dab]T; lactam 4-C)
- Activity [1]: Toxic
- Activity (Staphylococcus aureus [2]): inactive
- Activity [3]: Toxic
- Activity (Cell membrane [4]): 68%
- Activity (Staphylococcus aureus [5]): Active
- MIC (Staphylococcus aureus [6]): 8 µM (≈ 9.63 µg/mL)
- Activity [7]: Toxic
- Activity [8]: Toxic
- Activity [9]: Toxic
- MIC (Staphylococcus aureus [10]): 8 µM (≈ 9.63 µg/mL)
- Activity [11]: Toxic
- Activity [12]: Toxic
- Activity (Cell membrane [13]): inactive
- Activity [14]: Toxic
- MIC (Bacillus subtilis): 8 µM (≈ 9.63 µg/mL)
- Activity [15]: Active
- MIC [16]: 8 µM (≈ 9.63 µg/mL)
- Activity [17]: Toxic
- Activity (Cell membrane [18]): 84.8%
- Activity [19]: Toxic
- Activity [20]: Toxic
- Activity (Staphylococcus aureus [21]): Active
- Activity (Lipopolysaccharide (LPS)): Active
- MIC (Staphylococcus aureus [22]): 16 µM (≈ 19.3 µg/mL)
- Activity (Staphylococcus aureus [23]): Active
- Activity (Staphylococcus aureus [24]): inactive
- Activity (Cell membrane [25]): inactive
- Activity (Staphylococcus aureus [26]): Active
- MIC (Staphylococcus aureus [27]): 16 µM (≈ 19.3 µg/mL)
- Activity [28]: Toxic
- Activity [29]: Active
